Measurements published in US20090047221A1 (NIPRI LIMITED, priority 2004, published 2009).
pIC50: −log10 of the molar value. Like-named read-outs stand apart in the source and are kept apart here.

Legend:
Assay type in all cases: cell-based
MCF-7 = assay: MTT assay (anti-proliferative activity); conditions: read-out: IC 50 MCF-7
Description: (§1) The MTT assay was used initially to determine the anti-proliferative activity of the test compounds. In the MTT assay a yellow thiazolyl blue tetrazolium bromide salt (MTT) is reduced, in metabolically active cells, to form insoluble purple formazan crystals which are solubilised by the addition of dimethyl sulphoxide (DMSO).
(§2) Wells containing medium only were used as blanks. Following the attachment period, cells were treated with appropriate drug concentrations (20 μl added per well). 40 mg/ml stock drug solutions, in DMSO, were stored at −20° C. and on the day of drug treatment working solutions of 4 mg/ml were prepared in medium which was further diluted to achieve final drug dilution volumes of 20 μl. Initial screening was determined over a concentration range of 1-200 μg/ml. […] Cells were exposed to drug for 96 h continual exposure (37° C., 5% CO2). Following the 96 h incubation, 50 μl MTT solution (1 g MTT/500 ml PBS) was added per well and the plates were further incubated for 4 h (37° C., 5% CO2). After incubation the MTT and medium was removed from the wells and 100 μl DMSO added per well. Plates were agitated on an orbital mixer platform (Stuart Scientific) for 10 minutes. Absorbance was measured at 570 nm on a Biotrak II (Amersham Bioscience) plate reader. IC50 values were calculated comparing control and drug treated cells.

MDA-MB-468 = assay: MTT assay (anti-proliferative activity); conditions: read-out: IC 50 MDA-MB-468
Description: as §1, §2

MalMe3M = assay: MTT assay (anti-proliferative activity); conditions: 96 h continual exposure, read-out: IC 50 MalMe3M
Description: as §1, §2

SkMel28 = assay: MTT assay (anti-proliferative activity); conditions: read-out: IC 50 SkMel28
Description: as §1, §2

[1] = system: breast cancer (MDA-MB-468 and MCF-7 cell lines) and melanoma cell lines (MalMe3, SkMe128); assay: Cell cycle analysis by flow cytometry (propidium iodide); apoptosis as cells in sub G0/G1 (pre G0) peak; conditions: following treatment with IC70 concentration of compound
Description: Assessment of cell cycle analysis was performed using propidium iodide staining of cells and subsequent analysis on a Beckton Dickinson flow cytometer. […] The following day the medium was removed and replaced with 5 ml medium per flask containing the appropriate drug concentrations to be tested. 40 mg/ml stock drug solutions in DMSO were stores at −20° C. and on the day off drug treatment working solutions of 4 mg/ml were prepared in medium from which the final drug dilutions were prepared. Cells were maintained in an incubator (37° C., 5% CO2) for up to 96 h post treatment. After 24, 48, 72 or 96 h time points the medium from each flask was collected, stored on ice, and the remaining cells in the flasks were trypsinised by aiding 1 ml trypsin-EDTA solution to each flask. Cells were replaced into the incubator for 10 min to allow them to detach from the plastic plate. The cells in each flask were collected by adding the appropriate medium removed from each flask back to the corresponding flask and then placing medium containing both the attached and floating cells into a 15 ml tube. Cells were centrifuged at 4° C. for 5 min at 1500 rpm and the supernatant removed from each tube. The remaining cells were washed twice in ice cold PBS and then fixed in ice cold methanol overnight at −20° C. On the day of analysis of cells each tube was centrifuged at 4° C. for 5 min at 1500 rpm and the methanol removed and the cells washed twice in ice cold PBS. 20 μl propidium iodide solution (1 mg/ml) and 20 μl RNase A (10 mg/ml solution) were added to 1 ml PBS per tube and the cells were incubated for 30 min at 37° C. Cells were analysed on the flow cytometer and cell cycle changes were assessed.

[2] = Homo sapiens, MCF7, 96 h continual exposure
[3] = Homo sapiens, MDA-MB-468, 96 h continual exposure
[4] = Homo sapiens, SK-MEL-28, 96 h continual exposure

pIC50 (MCF-7; 96 h continual exposure)	pIC50 (MDA-MB-468; 96 h continual exposure)	pIC50 (MCF-7; [2])	pIC50 (MDA-MB-468; [3])	Molecule	pIC50 (MalMe3M)	pIC50 (SkMel28; 96 h continual exposure)	% Cells in Pre G0 phase of Cell Cycle [1]	pIC50 (MalMe3M; Homo sapiens, Malme-3M)	pIC50 (SkMel28; [4])
5.03	5.64	–	–	CC1Cc2ccc(C(=O)NC(Cc3ccccc3)C(=O)OC(C)(C)C)c(O)c2C(=O)O1 (mixture of isomers) [ALM-53, L-Phenyl Alanine Tert-Butyl Ester Amide]	4.93	4.15	8.9%	–	–
–	–	3.76	4.21	CC1Cc2ccc(F)c(O)c2C(=O)O1 (racemic) [ALM-22, Racemic Ortho-Fluoromellein]	–	–	16.5%	4.01	4.01
–	–	4.14	4.14	CC1Cc2ccc(I)c(O)c2C(=O)O1 (racemic) [ALM-25, Racemic Ortho-Iodomellein]	–	–	37.0%	4.12	4.10
4.04	4.23	–	–	CCCCCCN(C)C(=O)c1ccc2c(c1O)C(=O)OC(C)C2 (racemic) [ALM-50, N-Methyl-N-Hexyl Amide]	3.96	3.85	–	–	–
4.89	4.99	–	–	CCCCCCCCCCCCNC(=O)c1ccc2c(c1O)C(=O)OC(C)C2 (racemic) [ALM-51, Dodecyl Amide]	4.59	4.48	20.6%	–	–
4.67	4.90	–	–	CCCCCCCC/C=C\CCCCCCCCNC(=O)c1ccc2c(c1O)C(=O)OC(C)C2 (racemic) [ALM-52, Oleyl Amide]	4.28	3.61	19.8%	–	–
–	–	3.23	3.50	C[C@H]1Cc2cccc(O)c2C(=O)O1 [ALM-10, (3S)-mellein]	–	–	–	3.44	3.02
–	–	3.02	3.37	C[C@@H]1Cc2cccc(O)c2C(=O)O1 [ALM-11, (3R)-mellein]	–	–	–	< 3.02	3.02
–	–	< 2.98	2.98	COc1cccc2c1C(=O)O[C@@H](C)C2 [ALM-13, (3S)-methoxy mellein]	–	–	–	3.09	< 2.98
–	–	2.98	< 2.98	COc1cccc2c1C(=O)O[C@H](C)C2 [ALM-14, (3R)-methoxy mellein]	–	–	–	< 2.98	< 2.98
–	–	3.47	3.57	COC(=O)c1ccc2c(c1O)C(=O)OCC2 [ALM-68, 8-hydroxy-1-oxo-isochroman-7-carboxylic acid methyl ester]	–	–	–	3.29	3.25
4.74	4.84	–	–	CC(C)(C)OC(=O)[C@H](Cc1ccccc1)NC(=O)c1ccc2c(c1O)C(=O)OCC2 [ALM-69, L-Phenyl Alanine Tert-Butyl Ester Amide of Compound ALM-68]	4.66	4.14	14.4%	–	–
–	–	3.40	3.47	COC(=O)c1ccc2c(c1O)C(=O)OC(C)(C)C2 [ALM-71, 8-hydroxy-3,3-dimethyl-1-oxo-isochroman-7-carboxylic acid methyl ester]	–	–	–	< 3.10	< 3.10
–	–	< 3.07	< 3.07	CC1(C)Cc2ccc(C(=O)O)c(O)c2C(=O)O1 [ALM-72, 8-hydroxy-3,3-dimethyl-1-oxo-isochroman-7-carboxylic acid]	–	–	–	< 3.07	< 3.07
4.83	5.04	–	–	CC(C)(C)OC(=O)[C@H](Cc1ccccc1)NC(=O)c1ccc2c(c1O)C(=O)OC(C)(C)C2 [ALM-73, L-Phenyl Alanine Tert-Butyl Ester Amide of Compound ALM-71]	5.04	4.86	25.3%	–	–
–	–	< 3.12	< 3.12	CC1Cc2ccc3c(c2C(=O)O1)OC(C)(C)OC3=O (stereo not drawn) [ALM-75, Acetonide Compound]	–	–	–	< 3.12	< 3.12
< 3.40	< 3.40	–	–	Racemic Kigelin Oleyl Ester [ALM-2]	< 3.40	< 3.40	–	–	–
< 3.35	< 3.35	–	–	Racemic Mellein Oleyl Ester [ALM-17]	< 3.35	< 3.35	–	–	–

Molecule	pIC50 (MCF-7; 96 h continual exposure)	pIC50 (MDA-MB-468; 96 h continual exposure)	pIC50 (MCF-7; [2])	pIC50 (MDA-MB-468; [3])	pIC50 (MalMe3M)	pIC50 (SkMel28; 96 h continual exposure)	% Cells in Pre G0 phase of Cell Cycle [1]	pIC50 (MalMe3M; Homo sapiens, Malme-3M)	pIC50 (SkMel28; [4])
CC1Cc2ccc(C(=O)Nc3ccccc3)c(O)c2C(=O)O1 (racemic) [ALM-45, Aniline Amide]	4.57	5.00	–	–	4.47	3.77	6.4%	–	–
CC1Cc2ccc(C(=O)n3ccnc3)c(O)c2C(=O)O1 (racemic) [ALM-46, CDI derivative]	< 3.13	4.13	–	–	< 3.13	< 3.13	–	–	–
CC1Cc2ccc(C(=O)N3CCCC3)c(O)c2C(=O)O1 (racemic) [ALM-47, Pyrrolidine Amide]	< 3.14	3.31	–	–	< 3.14	< 3.14	–	–	–
CNC(=O)c1ccc2c(c1O)C(=O)OC(C)C2 (racemic) [ALM-48, Methyl Amide]	3.57	3.54	–	–	3.72	3.30	–	–	–
C[C@@H]1Cc2ccc(C(=O)N[C@@H](Cc3ccccc3)C(=O)O)c(O)c2C(=O)O1 [ALM-32, ochratoxin B]	4.72	4.72	–	–	4.87	4.67	–	–	–
O=C(N[C@@H](Cc1ccccc1)C(=O)O)c1ccc2c(c1O)C(=O)OCC2 [ALM-70, L-Phenyl Alanine Amide of Compound ALM-68]	5.08	5.85	–	–	4.74	4.37	32.7%	–	–
